In US20230029259A1, “COMBINATION OF IAP INHIBITORS AND PARP OR MEK INHIBITORS OR OTHER CHEMOTHERAPEUTIC AGENTS” (Ascentage Pharma (Suzhou) Co., Ltd., priority 2019, published 2023):
Where “and” joins values, the source holds several entries; their conditions need not be identical. Equal entries are not always repeated.

Key:
[1] = test system: pancreatic cancer patient derived xenograft model PA6265; experiment: Antitumor activity in subcutaneous pancreatic cancer PDX model PA6265 (Biological Example 1); assay type: in vivo, BALB/c nude mice; details: olaparib 50 mg/kg p.o. BID, trametinib 0.3 mg/kg p.o. QD, 4 weeks; for T/C (%) @ D29: day 29 (text: day 28), Example 24 10 mg/kg i.v. QW; for RTV @ D29: day 29, Example 24 10 mg/kg i.v. QW
Excerpt: (§1) Balb/c nude, female, 4-6 weeks, weighing approximately 18-22 g, which were purchased from GemPharmatech Co., Ltd (Nanjing, Jiangsu).
(§2) All of the PDX models were originally established from a surgically resected clinical sample (cancer type: pancreatic adenocarcinoma), and implanted in nude mice defined as passage 0 (P0). The next passage implanted from P0 tumor was defined as passage1 (P1), and so on during continual implantation in mice. The frozen tumor fragments were revived in NOD SCID mice, when the tumors were developed to suitable size, they were passaged to Balb/c nude mice. The P4-P7 tumors were used for the study.
(§3) Each group consisted of 5 tumor-bearing mice.
(§4) The protocol and any amendment(s) or procedures involving the care and use of animals in this study were reviewed and approved by the Institutional Animal Care and Use Committee (IACUC) of CrownBio prior to execution. During the study, the care and use of animals were conducted in accordance with the regulations of the Association for Assessment and Accreditation of Laboratory Animal Care (AAALAC). After tumor inoculation, the animals were checked daily for morbidity and mortality. During routine monitoring, the animals were checked for any effects of tumor growth and treatments on behavior such as mobility, food and water consumption, body weight gain/loss, eye/hair matting and any other abnormalities. Mortality and observed clinical signs were recorded for individual animals in detail.
(§5) After randomization, tumor volumes were measured twice per week in two dimensions using a caliper, and the volume was expressed in mm^3 using the formula: […]
(§6) where V is tumor volume, L is tumor length (the longest tumor dimension) and W is tumor width (perpendicular to L). Body weight was measured twice per week. Dosing as well as tumor and body weight measurements were conducted in a Laminar Flow Cabinet. The body weights and tumor volumes were measured by using StudyDirector™ software (version 3.1.399.19).
(§7) Relative tumor volume (RTV) was calculated using the following formula: […]
(§8) where V1 and Vt are the average tumor volumes on the first day of treatment (day 1) and the average tumor volumes on a certain time point (day t).
(§9) Synergy score was calculated using the following formula described in Clarke R. Issues in experimental design and endpoint analysis in the study of experimental cytotoxic agents in vivo in breast cancer and other models[J]. Breast Cancer Research & Treatment, 1997, 46(2-3):255-278, which is incorporated by reference in its entirety:
(§10) Synergy score=((A/C)×(B/C))/(AB/C),
(§11) where A is RTV value of drug A; B is RTV value of drug B; C is RTV value of vehicle control. AB is RTV value of combination treatment with A and B. Synergy scores: >1 represents synergistic, =1 represents additive, <1 represents antagonistic (referring to Gould S E et al. Translational value of mouse models in oncology drug development. Nature medicine. 2015 21, 431-439).
(§12) Standard NCI procedures were used to calculate tumor parameters. Percent tumor growth inhibition (% T/C) was calculated as the mean RTV of treated tumors (T) divided by the mean RTV of control tumors (C)×100%. The percentage T/C value is an indication of antitumor effectiveness: a value of T/C<42% is considered significant antitumor activity by the NCI. A T/C value <10% is considered to indicate highly significant antitumor activity, and is the level used by the NCI to justify a clinical trial if toxicity and certain other requirements are met (termed DN-2 level activity). A body weight loss nadir (mean of group) of greater than 20%, or greater than 20% of drug deaths are considered to indicate an excessively toxic dosage.
(§13) The antitumor activity curves of test articles were plotted with the observation time on the X-axis, and corresponding tumor volume (geometric mean) on the Y-axis. A two-tailed t-test was employed to analyze the statistical significance of any difference between the treatment group and the control group. […]

[2] = test system: PA1170 pancreatic cancer patient-derived xenograft model; experiment: Antitumor activity in PA1170 pancreatic cancer PDX model, confirmation study (Biological Example 3); assay type: in vivo, mice; details: for RTV @ D29 / T/C (%) @ D29: day 29, Example 24 10 mg/kg IV, olaparib 50 mg/kg p.o. BID, trametinib 0.3 mg/kg p.o. QD, 4 weeks
[3] = test system: pancreatic cancer patient derived xenograft (PDX) model PA1170; experiment: Antitumor activity in subcutaneous pancreatic cancer PDX model PA1170 (Biological Example 1); assay type: in vivo, BALB/c nude mice; details: day 28, Example 24 10 mg/kg i.v. QW, olaparib 50 mg/kg p.o. BID, trametinib 0.3 mg/kg p.o. QD, 4 ws
Excerpt: as §1, §2, §3, §4, §5, §6, §7, §8, §9, §10, §11, §12, §13

[4] = test system: murine pancreatic cancer model mPA6115; experiment: Antitumor activity in murine pancreatic cancer model mPA6115 (Biological Example 2)
Excerpt: C57BL/6, female, 6-8 weeks, weighing approximately 18-20 g, which were purchased from Shanghai Lingchang Biotechnology Co., Ltd (Shanghai, China).
mPA6115 is a murine pancreatic cancer cell line carries a conditional mutant KRAS (KrasLSL-G12D/WT), a constitutive deletion of TP53 (p53−/−) and a Cre driven by the promoter of Pdx1 gene.
Fresh tumor tissues from mice bearing established primary cancer tissues were harvested and cut into small pieces (approximately 2-3 mm in diameter). Tumor fragments, harvested from donor mice, were inoculated subcutaneously at the upper right dorsal flank into corresponding female C57BL/6 mice for tumor development. Treatments were started when the average tumor size reached approximately 150 mm^3. Randomization were performed based on “Matched distribution” method/“Stratified” method using the multi-task method (StudyDirector™ software, version 3.1.399.19)/randomized block design. Each group consisted of 6 tumor-bearing mice.

[5] = test system: Panc-1 human pancreatic cancer xenograft model; details: Panc-1 xenograft, day 27; abraxane 30 mg/kg i.v. QW×3w, gemcitabine 120 mg/kg i.p. QW×3w
[6] = mPA6115, day 21, Example 24 0.2 mg/kg i.v. BIW×3w, abraxane 15 mg/kg i.v. QW×3w, gemcitabine 120 mg/kg i.p. QW×3w

SMILES | T/C (%) @ D29 [1] [%] | T/C (%) @ D29 ([1]; listed as olaparib) [%] | RTV @ D29 [1] | RTV @ D29 [2] | T/C (%) @ D29 [2] | T/C (%) @ D29 ([2]; listed as olaparib) [%] | RTV @ D28 [3] | T/C (%) @ D28 [3] [%] | T/C (%) @ D28 ([3]; listed as olaparib) [%] | T/C (%) @ D29 ([1]; listed as trametinib) [%] | T/C (%) @ D29 ([2]; listed as trametinib) [%] | T/C (%) @ D28 ([3]; listed as trametinib) [%] | antitumor effect (in words) ([4]; mPA6115, day 21, single agent 0.2 mg/kg i.v. BIW×3w) | RTV @ D21 [4, 6] | T/C (%) @ D21 [4, 6] [%] | Response @ D21 ([4]; mPA6115, day 21, animals with PD or died / animals) | Response @ D28 ([2]; responders/animals (CR, SD)) | RTV @ D27 [5] | T/C (%) @ D27 [5]
O=C(c1cc(Cc2n[nH]c(=O)c3ccccc23)ccc1F)N1CCN(C(=O)C2CC2)CC1 [Olaparib] | 71.78 | 72 | 4.07 ± 0.51 | 1.90 ± 1.13 | 22.33% | 22.3 | 3.09 ± 0.73 | 32.15 | 32 |  |  |  |  |  |  |  |  |  | 
CC(=O)Nc1cccc(-n2c(=O)n(C3CC3)c(=O)c3c(Nc4ccc(I)cc4F)n(C)c(=O)c(C)c32)c1 [Trametinib] | 76.01 |  | 4.31 ± 0.98 | 7.34 ± 1.49 | 86.25% |  | 6.59 ± 0.41 | 68.57 |  | 76 | 86.3 | 69 |  |  |  |  |  |  | 
CN[C@@H](C)C(=O)N[C@H]1CN(S(=O)(=O)c2cccc(S(=O)(=O)N3CC[C@H]4CC[C@@H](C(=O)NC(c5ccccc5)c5ccccc5)N4C(=O)[C@@H](NC(=O)[C@H](C)NC)C3)c2)CC[C@H]2CCC(C(=O)NC(c3ccccc3)c3ccccc3)N2C1=O (stereo partly drawn) [the compound of Example 24] |  |  |  | 4.29 ± 1.83 | 50.4% and 50.41% |  |  |  |  |  |  |  | no antitumor effect | 32.77 ± 10.36 | 144.28 | 5/6 PD, 1/6 died | 1/5 SD | 2.63 ± 0.51 | 66.1% and 66.08%
